# Like-named read-outs stand apart in the source and are kept apart here.
# Assays:
# HepG2 liver cancer cells = experiment: sorafenib dose-effect, AlamarBlue cell proliferation; assay type: cell-based; settings: Homo sapiens, 72 h, AlamarBlue 3 days post drug treatment, range from two or three experiments
# Procedure: (§1) FIG. 2 illustrates dose-effect curves of sorafenib in liver cancer cells. Cells were seed in 96-well plate at 2000 cells per well. Three days after seeding the cells, sorafenib in a serial dilution from (0.1-100 μM) was added to the medium. Cell proliferation or percent inhibition was determined by AlamarBlue 3 days post drug treatment. Data were normalized to cells treated with sorafenib solvent (1% DMSO final concentration).
# (§2) Sorafenib dose response curves were established in each cell line, and the cell proliferation was determined using AlamarBlue (Invitrogen) 3 days post drug treatment. Nonlinear regression and IC50 values were calculated using the GraphPad (Prism) software.
# as §1, with “treatment, and IC50 values” for “treatment. Data”, “calculated using the GraphPad software.” for “normalized to cells treated with sorafenib solvent (1% DMSO final concentration).”
# Huh7 liver cancer cells = experiment: as above; assay type: cell-based; settings: Homo sapiens, Huh-7, 72 h, AlamarBlue 3 days post drug treatment, range from two or three experiments
# Procedure: as §1, §2
# as §1, with “treatment, and IC50 values” for “treatment. Data”, “calculated using the GraphPad software.” for “normalized to cells treated with sorafenib solvent (1% DMSO final concentration).”
# C3A liver cancer cells = experiment: as above; assay type: cell-based; settings: 72 h, AlamarBlue 3 days post drug treatment, range from two or three experiments
# Procedure: as §1, §2
# as §1, with “treatment, and IC50 values” for “treatment. Data”, “calculated using the GraphPad software.” for “normalized to cells treated with sorafenib solvent (1% DMSO final concentration).”
# Hep3b liver cancer cells = experiment: as above; assay type: cell-based; settings: Homo sapiens, 72 h, AlamarBlue 3 days post drug treatment, range from two or three experiments
# Procedure: as §1, §2
# as §1, with “treatment, and IC50 values” for “treatment. Data”, “calculated using the GraphPad software.” for “normalized to cells treated with sorafenib solvent (1% DMSO final concentration).”
# [1] = cited from earlier work
# [2] = tested on: four liver cancer cell lines (Hep3b, HepG2, C3A, Huh7); experiment: combination studies in four liver cancer cell lines (overall synergy statements); assay type: cell-based; settings: combination with miRNA mimic instead of sorafenib; data not shown
compound,measurement,setting,value
CNC(=O)c1cc(Oc2ccc(NC(=O)Nc3ccc(Cl)c(C(F)(F)F)c3)cc2)ccn1 [Sorafenib],IC50,HepG2 liver cancer cells,6.7 to 9 µM
same,IC50,Huh7 liver cancer cells,13.1 to 16 µM
same,IC50,C3A liver cancer cells,10.7 to 11.8 µM
same,IC50,Hep3b liver cancer cells,5.4 to 12.7 µM
"CNC(=O)c1cc(Oc2ccc(NC(=O)Nc3ccc(Cl)c(C(F)(F)F)c3)cc2)ccn1.Cc1ccc(S(=O)(=O)O)cc1 [Sorafenib tosylate, 4-(4-{3-[4-Chloro-3 (trifluoromethyl)phenyl]ureido}phenoxy) N-methylpyridine-2-carboxamide 4-methylbenzenesulfonate]",solubility,[1]; PEG 400,soluble
same,solubility,[1]; aqueous media,practically insoluble
same,solubility,[1]; ethanol,slightly soluble
O=c1[nH]cc(F)c(=O)[nH]1 [5-FU],synergy in combinations with other chemotherapeutic agents,[2],synergy was not identified
COc1cccc2c1C(=O)c1c(O)c3c(c(O)c1C2=O)C[C@@](O)(C(=O)CO)C[C@@H]3O[C@H]1C[C@H](N)[C@H](O)[C@H](C)O1 [doxorubicin],synergy in combinations with other chemotherapeutic agents,[2],synergy was not identified
